{
  "source": "patent US9579280B2",
  "about": "“Controlled release delivery system for nasal applications and method of treatment” (MATTERN PHARMA AG, priority 2003, dated 2017)",
  "origin": "cited, not measured here",
  "key": {"[1]": {"biological_target": "T1, sex hormone binding globulin (SHBG) (Homo sapiens, UniProt P04278)", "T1 sequence (P04278 30-402)": "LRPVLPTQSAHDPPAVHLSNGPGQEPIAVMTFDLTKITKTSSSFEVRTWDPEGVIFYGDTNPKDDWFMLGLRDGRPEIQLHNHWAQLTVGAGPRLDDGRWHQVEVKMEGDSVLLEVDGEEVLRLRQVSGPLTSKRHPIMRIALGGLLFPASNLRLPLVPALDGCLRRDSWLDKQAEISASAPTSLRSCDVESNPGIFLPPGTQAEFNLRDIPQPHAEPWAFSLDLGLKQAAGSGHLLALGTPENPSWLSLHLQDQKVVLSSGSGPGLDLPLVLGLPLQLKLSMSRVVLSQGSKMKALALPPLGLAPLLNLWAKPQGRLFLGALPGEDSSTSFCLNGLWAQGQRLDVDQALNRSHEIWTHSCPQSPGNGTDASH"}, "[2]": {"settings": "relative to water"}, "[3]": {"settings": "nasal"}, "[4]": {"system": "female sexual response", "settings": "for sexual arousal: sublingual or single vaginal dose"}},
  "note": "Read-outs that look alike come from different tables or passages of the source.",
  "data": [
    {"compound": "C[C@]12CC[C@H]3[C@@H](CCC4=CC(=O)CC[C@@]43C)[C@@H]1CC[C@@H]2O", "note": "[Testosterone, testosterone]", "values": [
      {"measurement": "fraction of circulating plasma testosterone bound to SHBG", "setting": "[1]", "value": "Approximately 40%"},
      {"measurement": "unbound (free) fraction", "setting": "[1]; in men", "value": 2, "unit": "%"},
      {"measurement": "unbound (free) fraction", "setting": "[1]; in women", "value": "up to 3%"},
      {"measurement": "solubility in vegetable oil", "setting": "[2]", "value": "somewhat more soluble in vegetable oil"}
    ]},
    {"compound": "CN(C)CC(=O)O[C@H]1CC[C@H]2[C@@H]3CCC4=CC(=O)CC[C@]4(C)[C@H]3CC[C@]12C", "note": "[testosterone 17β-N,N-dimethylglycinate]", "values": [
      {"measurement": "elimination half-life", "setting": "[3]", "value": "about fifty-five"},
      {"measurement": "serum levels compared with intravenous administration", "setting": "[3]", "value": "equal to intravenous administration"},
      {"measurement": "time to peak plasma concentration", "setting": "[3]; 25 mg dose", "value": "twelve"},
      {"measurement": "time to peak plasma concentration", "setting": "[3]; 50 mg dose", "value": "twenty"}
    ]},
    {"compound": "CCC(=O)O[C@H]1CC[C@H]2[C@@H]3CCC4=CC(=O)CC[C@]4(C)[C@H]3CC[C@]12C", "note": "[testosterone propionate]", "values": [
      {"measurement": "time of testosterone and free testosterone peak", "setting": "[4]; single vaginal dose", "value": 5.5, "unit": "h"},
      {"measurement": "sexual arousal", "setting": "[4]", "value": "does not trigger sexual arousal"}
    ]},
    {"compound": "CCCCCCCCCCC(=O)O[C@H]1CC[C@H]2[C@@H]3CCC4=CC(=O)CC[C@]4(C)[C@H]3CC[C@]12C", "note": "[testosterone undecanoate]", "values": [
      {"measurement": "sexual arousal", "setting": "[4]", "value": "triggers sexual arousal"}
    ]}
  ]
}
